Tested on: U2OS
Assay: Incucyte cell viability with U2OS; note: filed as whole numbers so only -1 and 0 and 1 occur
Format: toxicity, cell-based
Details: human, 10 µM, compound concentration 10 uM
[1] = 0 h, replicate number 2, timepoint 0 hours
[2] = 6 h, replicate number 2, timepoint 6 hours
[3] = 12 h, replicate number 1, timepoint 12 hours
[4] = 18 h, replicate number 1, timepoint 18 hours
[5] = 18 h, replicate number 2, timepoint 18 hours
[6] = 24 h, replicate number 1, timepoint 24 hours
[7] = 0 h, replicate number 1, timepoint 0 hours
[8] = 6 h, replicate number 1, timepoint 6 hours
[9] = 12 h, replicate number 2, timepoint 12 hours
[10] = 24 h, replicate number 2, timepoint 24 hours

Row | Structure (SMILES) | Growth Rate [1] | Growth Rate [2] | Growth Rate [3] | Growth Rate [4] | Growth Rate [5] | Growth Rate [6] | Growth Rate [7] | Growth Rate [8] | Growth Rate [9] | Growth Rate [10]
1 | c1cn2cc(-c3ccc4cn[nH]c4c3)nc(Nc3ccc(N4CCOCC4)cc3)c2n1 [ENTOSPLETINIB] | 1 | 1 | 1 | 1 | 0 | 0 |  |  |  | 
2 | Cc1nc(-c2cn3c(n2)-c2ccc(-c4cnn(C(C)(C)C(N)=O)c4)cc2OCC3)n(C(C)C)n1 [TASELISIB] |  |  | 1 | 0 | 1 | 0 | 0 | 0 |  | 
3 | Cc1nc(Nc2n[nH]c3c2CN(C(=O)N[C@H](CN(C)C)c2ccccc2)C3(C)C)c2sccc2n1 [PF-03758309] |  |  | 0 | 0 |  | 0 | 1 | 0 |  | 
4 | CC(C)NCC(O)COc1ccc(CCOCC2CC2)cc1.Cl (stereo not given) [BETAXOLOL HYDROCHLORIDE] |  |  |  | 1 |  | 1 | 0 |  |  | 
5 | Cn1cc(-c2[nH]c3cc(NC(=O)[C@H](N)C4CCCCC4)cc4c3c2C=NNC4=O)cn1 |  | 1 | 0 | 0 |  | 0 | 0 | 0 | 1 | 
6 | Cn1c(-c2csc(C3CCN(CC4=NC5N=CC=CC5N4)CC3)n2)nc2ccccc21 (stereo not given) [BAY-070] |  |  | 1 | 0 | 1 | 1 | 0 | 0 |  | 0
7 | CN1C(=O)c2sccc2N(C)c2nc(Nc3ccc(S(N)(=O)=O)cc3)ncc21 | 0 |  | 0 | 0 |  | 0 |  | 0 |  | 
8 | CN1CCCC(n2nc(Cc3ccc(Cl)cc3)c3ccccc3c2=O)CC1.Cl (stereo not given) [AZELASTINE HYDROCHLORIDE] |  | 0 |  | 1 |  | 1 | 0 |  | 1 | 
9 | COc1cccc([C@@H](C)NCCCc2ccccc2Cl)c1.Cl [TECALCET HYDROCHLORIDE] |  | 0 | 1 | 1 |  | 1 | 0 |  |  | 0
10 | Cc1nc(-c2ccc(-c3ccc(C(=O)N4CCc5cc6c(cc54)C4(CCN(C)CC4)CO6)cc3)c(C)c2)no1 [SB-224289] | 0 | 1 |  | 1 |  | 1 |  |  | 1 | 0
11 | COc1ccc(Oc2cc(NCCC(F)(F)F)c3ncc(-c4ccc(C(=O)NC5CC5)c(C)c4)n3n2)c(F)c1F [BAY-1217389] |  |  | 0 | 0 | 1 | 0 | 0 | 0 | 1 | 
12 | Cc1c(-c2ccc(O)cc2)n(Cc2ccc(OCCN3CCCCCC3)cc2)c2ccc(O)cc12 [BAZEDOXIFENE] | 0 |  | 1 | 0 | 1 | 0 |  |  |  | 
13 | CN1CCN(c2ccc(OC(F)(F)F)c(Nc3ncc4c(n3)-c3c(c(C(N)=O)nn3CCO)CC4)c2)CC1 [ONVANSERTIB] |  |  | 0 | 0 |  | 0 | 0 | 0 |  | 
14 | C=CC(=O)Nc1cccc(C(=O)Nc2ccc(Nc3cc(-c4[nH]c(SC)nc4C)ccn3)cc2)c1 | 1 |  | 0 | 0 |  | 0 | 0 | 0 |  | 
15 | CNCc1ccccc1-c1csc([C@H](C)Nc2nc(C)nc3cc(OC)c(OC)cc23)c1 [BAY-294] |  |  | 0 | 0 |  | 0 | 0 | 0 |  | 
16 | CN(C)C(=O)/C(C#N)=C/c1ccc(-c2nc3cnc4[nH]ccc4c3n2C2CCCCC2)o1 |  | 1 | 0 | 0 | 1 | 0 | 0 | 0 | 1 | 1
17 | Cn1cncc1[C@@](O)(COc1ccc(C#N)cc1-c1ccc(OC(F)(F)F)cc1)c1ccc(C#N)cc1 [A-108] |  |  | 1 | 0 |  | 0 | 0 | 0 |  | 

Row | Structure (SMILES) | Growth Rate [1] | Growth Rate [2] | Growth Rate [3] | Growth Rate [4] | Growth Rate [5] | Growth Rate [6] | Growth Rate [7] | Growth Rate [8] | Growth Rate [9] | Growth Rate [10]
18 | CC[C@H](C)C(=O)O[C@H]1C[C@@H](C)C=C2C=C[C@H](C)[C@H](CC[C@@H]3C[C@@H](O)CC(=O)O3)[C@H]21 [LOVASTATIN] |  |  | 0 | 0 |  | 0 |  | 0 |  | 
19 | Cn1cc(C2=C(c3cn(C4CCN(Cc5ccccn5)CC4)c4ccccc34)C(=O)NC2=O)c2ccccc21 [ENZASTAURIN] |  |  | 0 | 0 |  | 0 | 0 | 0 |  | 
20 | Cl.N#Cc1ccc2[nH]cc(CCCCN3CCN(c4ccc5oc(C(N)=O)cc5c4)CC3)c2c1 [VILAZODONE HYDROCHLORIDE] |  | 1 | 1 | 0 |  | 0 | 0 |  | 0 | 
21 | Cc1cc(C)cc(-c2cnc3cc(Cl)c(-c4cccc(O)c4)cc3c2OCCCN)c1 | 0 |  | 0 | 0 |  | 0 |  | 0 |  | 
22 | CCOCCn1cc(C(=O)Nc2ccc(-n3nc(-c4cccnc4)cc3C(F)(F)F)cn2)ccc1=O [BI 1935] |  |  | 0 | 0 |  | 0 | 0 | 0 |  | 1
23 | O=C1NCN(c2ccccc2)C12CCN(CCCOc1ccc(F)cc1)CC2 [SPIRAMIDE] |  | 1 | 0 | 0 |  | 0 | 0 |  |  | 
24 | CCn1c(=O)c(-c2ccc(Cl)cc2Cl)cc2cnc(Nc3ccc(N4CCNCC4)c(F)c3)nc21 |  |  | 0 | 0 |  | 0 | 0 | 0 |  | 
25 | Cc1[nH]c(/C=C2\C(=O)Nc3ccc(S(=O)(=O)N(C)c4cccc(Cl)c4)cc32)c(C)c1C(=O)N1CCN(C)CC1 | 0 |  | 0 | 0 |  | 0 |  |  | 1 | 
26 | COc1cc2nccc(Oc3ccc(NC(=O)Nc4cc(C)on4)c(Cl)c3)c2cc1OC.O | 0 |  | 0 | 0 |  | 0 | 1 | 0 |  | 
27 | Cc1csc2c(N[C@@H](C)CN3CCN(S(=O)(=O)c4ccc(Cl)c(Cl)c4)CC3)ncnc12 |  | 1 | 1 | 0 |  | 0 | 0 |  | 0 | 
28 | COc1cc(-n2cnc3cc(-c4ccc(Cl)cc4)sc3c2=O)ccc1OCCN1CCCC1 |  |  | 0 | 0 |  | 0 | 0 | 0 |  | 
29 | NC(=O)Nc1cc(-c2cccc(F)c2)sc1C(=O)N[C@H]1CCCNC1 [AZD-7762] |  |  | 0 | 0 |  | 0 | 0 | 0 |  | 
30 | O=C(NCCCC1CCCCC1)c1ccc(CNC(=O)c2cnn(-c3ccccc3)c2C(F)(F)F)cc1 [SR-321] |  | 0 | 1 | 1 |  | 1 | 0 | 1 |  | 
31 | CN(C)C(=O)N[C@H]1CC[C@H](CCN2CCN(c3cccc(Cl)c3Cl)CC2)CC1.Cl [CARIPRAZINE HYDROCHLORIDE] |  |  | 1 | 1 |  | 1 | 1 | 0 |  | 
32 | CN(C)c1ncnc(-c2ccc3nc(Nc4cc(CN5CCN(C(=O)CC(F)(F)F)CC5)ccn4)[nH]c3c2)c1Cl [BAY-440] | 0 | 1 | 0 | 0 | 1 | 0 |  | 0 | 1 | 1
33 | OC1(c2ccc(Cl)cc2)CCN(Cc2c[nH]c3ccccc23)CC1 |  | 0 | 0 | 0 |  | 0 |  |  |  | 

Reference: ChEMBL document CHEMBL4689842, “EUbOPEN Chemogenomics Library wave 1” (2021)
